Where two headings read alike, the source gives them in different places.
Experiments:
[1] = Solubility of PGRs in solvents
Text: In some examples, the ratios of the plurality of non-aqueous solvents may be selected based on a relative amount and type of PGR compound selected for the agrochemical formulation. For example, an amount (e.g., vol. %) of a high dielectric solvent may be selected to fully dissolve selected amounts (e.g., vol. %) of one or more PGRs of the plurality of selected PGRs, which may only be soluble, or at least more soluble in, the high dielectric solvent. Additionally, an amount of (e.g., vol. %) of a medium dielectric solvent and/or a low dielectric solvent may be selected for similar reasons.

[2] = Accelerated aging test of formulation E1, 54° C. for 2 weeks; type: physicochemical; conditions: for 2-Weeks at 54° C.: in formulation E1, after 2 weeks at 54° C.; for Initial Assay: in formulation E1, before accelerated aging; for Percent Change: in formulation E1, initial vs 2 weeks at 54° C.
Protocol: Example 1 (E1): A combination of three PGRs (kinetin, GA3, and IBA) were dissolved in a ternary solvent system containing a high dielectric solvent (DMSO), a medium dielectric solvent (HALLCOMID® M-8-10), and a low dielectric solvent (methyl soyate) with surfactants (ETHOX® CO-40 and ETHFAC® 140) at the ratios specified in Table E1:
The formulation was tested in an accelerated aging test by storing the sample at 54° C. for 2 weeks and measuring the content of the PGRs before and after testing. This was to follow the EPA's Office of Pesticide Programs guidelines for product chemistry and stability.
Table 2 illustrates initial formulation stability and stability at two-weeks as a percentage change in the amount (vol. %) of each PGR: […]

[3] = Storage stability of aqueous formulation CE1, PGR content after 1 year; type: physicochemical; conditions: in aqueous formulation CE1, 1 year of storage
Protocol: Comparative Example 1: A combination of three PGRs (kinetin, GA3, and IBA) were dissolved in water along with a defoamer and a phosphate ester surfactant at the ratios specified in Table CE1: […] This is typical behavior for an aqueous system containing these PGRs.

[4] = cited from earlier work

SMILES | solubility in DMSO ([1]; DMSO) [%] | solubility in vegetable oil or modified vegetable oil solvents ([1]; vegetable oil or modified vegetable oil solvents) | 2-Weeks at 54° C. [2] [%] | Initial Assay [2] [%] | Percent Change [2] [%] | detected level of active ingredient after 1 year of storage [3] | loss of active ingredient after 1 year of storage [3] [%] | chemical breakdown in water [4] | solubility in DMSO [1] [%] | solubility in vegetable oil or modified vegetable oil solvents [1]
C=C1C[C@]23C[C@@]1(O)CC[C@H]2[C@@]12C=C[C@H](O)[C@@](C)(C(=O)O1)[C@@H]2[C@@H]3C(=O)O [GA3, (3S,3aS,4S,4aS,7S,9aR,9bR,12S)-7,12-Dihydroxy-3-methyl-6-methylene-2-oxoperhydro-4a,7-methano-9b,3-propenoazuleno[1,2-b]furan-4-carboxylic acid] | 1.5 | virtually insoluble | 0.055 | 0.058 | 5.17 | 0.0005% | 91 |  |  | 
O=C(O)CCCc1c[nH]c2ccccc12 [IBA, indole-3-butyric acid] |  |  | 0.047 | 0.047 | 0.00 | not detected | 100 | facilitates the chemical breakdown |  | 
c1coc(CNc2ncnc3[nH]cnc23)c1 [kinetin] |  |  | 0.090 | 0.099 | 9.09 | 0.0015% | 83 |  | 3.3 | virtually insoluble
